Results reported in US7414107B2, “Pharmacologically active peptide conjugates having a reduced tendency towards enzymatic hydrolysis” (priority 1998, dated 2008).
Where a SMILES comes first, the peptide text is derived from it. Bridges are numbered along the chain shown (N, C = ends). Where no end group is shown, it is not given here. [ ]: non-standard residue; d: D form. Dab = NCC[C@H](N)C(=O)O

Columns and labels:
carboxypeptidase A = target: T1, carboxypeptidase A (Bos taurus, UniProt P00730); assay: Hydrolysis kinetics in carboxypeptidase A solution; format: in vitro ADME, bovine; conditions: 50 mM phosphate buffer pH 7.4, 37° C., carboxypeptidase A 1 U/ml
T1 construct: purchased Sigma, UK type I (catalogue number not given); host or cells: bovine pancreas
T1 sequence (P00730 111-419): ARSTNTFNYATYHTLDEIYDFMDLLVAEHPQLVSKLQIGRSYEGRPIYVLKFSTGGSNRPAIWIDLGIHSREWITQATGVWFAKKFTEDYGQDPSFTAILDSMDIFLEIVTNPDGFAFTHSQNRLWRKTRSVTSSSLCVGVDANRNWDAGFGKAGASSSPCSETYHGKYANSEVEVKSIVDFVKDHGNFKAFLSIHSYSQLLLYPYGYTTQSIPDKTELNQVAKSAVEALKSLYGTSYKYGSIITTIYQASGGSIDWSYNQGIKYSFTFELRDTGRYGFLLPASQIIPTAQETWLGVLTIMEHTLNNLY
Method: (§1) Carboxypeptidase A (EC 3.4.17.1) type I from bovine pancreas, leucine aminopeptidase (EC 3.4.11.1) type III-CP from porcine kidney, α-chymotrypsin (EC […]) from bovine pancreas, and pepsin A (EC 3.4.23.1) from porcine stomach mucosa […] were obtained from Sigma, UK.
(§2) Gradient HPLC analysis of samples from in vitro kinetic measurements performed as described below was performed using a Hewlett Packard HP 1100 HPLC system consisting of a HP 1100 Binary Pump, a HPI 100 Autosampler, a HPI 100 Column Thermostat and a HP 1100 Variable Wavelength Detector. A Merck LiChroCART column (125×4 mm I.D.) and a LiChroCART precolumn (4×4 mm I.D.) packed with Lichrospher RP-18 (5 .μum particles) was used. The column was kept at 25° C. or 75° C. and the column effluent was measured by UV detection at 215 run. Separation of the peptide conjugates or the native peptides from degradation products and constituents of the reaction solutions was accomplished using gradient elution of the column with mixtures of mobile phase A (0.1 vol % TFA in water) and mobile phase B (0.085 vol % TFA in acetonitrile) at a flow rate of 1 ml/min.
(§3) The degradation of the peptide conjugate and the corresponding native peptide were studied at 37° C. in a 50 mM phosphate buffer solution at pH 7.4 containing leucine arninopeptidase (25 U/ml) or carboxypeptidase A (1 or 25 U/ml). Experiments were initiated by addition of an aliquot (100 μl) of a stock solution (1 mg/ml) of the peptide conjugate or the native peptide to 900 μl preheated enzyme solution giving a final concentration of ˜0.1 mg/ml (10^−5-10^−4M) of the peptide conjugate or the native peptide. The peptide/enzyme solution was kept at 37° C. using a SHT200D block heater from Stuart Scientific. At appropriate time intervals, samples of 100 μl were withdrawn from the peptide/enzyme solution, mixed thoroughly with 20 μl 25% TFA in acetonitrile in order to stop the enzymatic degradation process and analysed by HPLC as described above. Half-lives (t1/2) for the peptide conjugate and the corresponding native peptide in the enzyme solutions were calculated from plots of the natural logarithm to the concentration of the residual peptide (HPLC peak heights) against time using the formula t/2=1/kobs×ln(2), where kobs is the apparent first-order rate constant for the observed degradation.

leucine aminopeptidase = target: T2, leucine aminopeptidase (Sus scrofa, UniProt P28839); assay: Hydrolysis kinetics in leucine aminopeptidase solution; format: in vitro ADME, porcine; conditions: 50 mM phosphate buffer pH 7.4, 37° C., leucine aminopeptidase 25 U/ml; for half-life: pig
T2 construct: purchased Sigma, UK type III-CP (catalogue number not given); host or cells: porcine kidney
T2 sequence (P28839 1-519): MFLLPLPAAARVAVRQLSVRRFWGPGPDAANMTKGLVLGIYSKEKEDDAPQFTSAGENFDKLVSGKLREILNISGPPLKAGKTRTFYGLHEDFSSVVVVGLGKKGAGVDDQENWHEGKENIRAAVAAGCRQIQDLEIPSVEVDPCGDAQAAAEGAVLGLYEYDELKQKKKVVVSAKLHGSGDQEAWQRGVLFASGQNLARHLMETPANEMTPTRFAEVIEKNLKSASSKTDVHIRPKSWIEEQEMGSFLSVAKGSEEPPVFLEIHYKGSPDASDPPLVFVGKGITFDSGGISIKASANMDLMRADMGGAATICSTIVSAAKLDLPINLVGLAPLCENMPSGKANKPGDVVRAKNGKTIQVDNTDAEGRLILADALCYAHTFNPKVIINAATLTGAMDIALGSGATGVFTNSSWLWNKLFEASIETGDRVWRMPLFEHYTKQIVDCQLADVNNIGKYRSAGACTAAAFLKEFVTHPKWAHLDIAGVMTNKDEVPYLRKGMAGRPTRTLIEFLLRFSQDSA
Method: as §1, §2, §3

Row | Compound | half-life (carboxypeptidase A) | pseudo first-order rate constant for the degradation (carboxypeptidase A) | pseudo first-order rate constant for the degradation (leucine aminopeptidase) | half-life (leucine aminopeptidase)
1 | H-RPKPQQFFGLMKKKKKK-NH2 [Substance P-(Lys)6-NH2, H-Arg-Pro-Lys-Pro-Gln-Gln-Phe-Phe-Gly-Leu-Met-Lys6 -NH2] | 2.1 h | 0.0055 min⁻¹ | 0.011 min⁻¹ | 1.1 h
2 | CC[C@H](C)[C@H](NC(=O)[C@H](Cc1ccccc1)NC(=O)[C@H](CCC(=O)O)NC(=O)[C@H](CCCCN)NC(=O)[C@H](C)NC(=O)[C@H](C)NC(=O)[C@H](CCC(N)=O)NC(=O)CNC(=O)[C@H](CCC(=O)O)NC(=O)[C@H](CC(C)C)NC(=O)[C@H](Cc1ccc(O)cc1)NC(=O)[C@H](CO)NC(=O)[C@H](CO)NC(=O)[C@@H](NC(=O)[C@H](CC(=O)O)NC(=O)[C@H](CO)NC(=O)[C@@H](NC(=O)[C@H](Cc1ccccc1)NC(=O)[C@@H](NC(=O)CNC(=O)[C@H](CCC(=O)O)NC(=O)[C@H](C)NC(=O)[C@@H](N)Cc1c[nH]cn1)[C@@H](C)O)[C@@H](C)O)C(C)C)C(=O)N[C@@H](C)C(=O)N[C@@H](Cc1c[nH]c2ccccc12)C(=O)N[C@@H](CC(C)C)C(=O)N[C@H](C(=O)N[C@@H](CCCCN)C(=O)NCC(=O)N[C@@H](CCCNC(=N)N)C(=O)N[C@@H](CCCCN)C(=O)N[C@@H](CCCCN)C(=O)N[C@@H](CCCCN)C(=O)N[C@@H](CCCCN)C(=O)N[C@@H](CCCCN)C(=O)N[C@@H](CCCCN)C(=O)O)C(C)C [GLP-1(7-36)(Human)-(Lys)6-OH, H-His-Ala-Glu-Gly-Thr-Phe-Thr-Ser-Asp-Val-Ser-Ser-Tyr-Leu -Glu-Gly-Gln-Ala-Ala-Lys-Glu-Phe-Ile-Ala-Trp-Leu-Val-Lys-Gly-Arg-(Lys)6-OH] | 1.45 h | 0.008 min⁻¹ | 0.013 min⁻¹ | 0.883 h
3 | H-WAGGDASGEKEKEKE-OH [DSIP-(Lys-Glu)3-OH, H-Trp-Ala-Gly-Gly-Asp-Ala-Ser-Gly-Glu-(Lys-Glu)3-OH] |  |  |  | 2.42 h
4 | CC(C)C[C@H](NC(=O)[C@H](Cc1ccccc1)NC(=O)CNC(=O)CNC(=O)[C@@H](N)Cc1ccc(O)cc1)C(=O)N[C@@H](CCN)C(=O)N[C@@H](CCN)C(=O)N[C@@H](CCN)C(=O)N[C@@H](CCN)C(=O)N[C@@H](CCN)C(=O)N[C@@H](CCN)C(=O)O [Leu-Enkephalin-(Dbu)6-OH, H-Tyr-Gly-Gly-Phe-Leu-(Dbu)6-OH] (H-YGGFL[Dab][Dab][Dab][Dab][Dab][Dab]-OH) | 23.1 h | 0.005 min⁻¹ | 0.025 min⁻¹ | 0.467 h
5 | CC(C)C[C@@H]1NC(=O)[C@@H]2CCCN2C(=O)CNC(=O)[C@H](Cc2ccccc2)NC(=O)[C@H](Cc2c[nH]cn2)NC(=O)[C@@H](NC(=O)[C@H](CO)NC(=O)[C@H](Cc2ccc(O)cc2)NC(=O)[C@@H](NC(=O)CNC(=O)CNC(=O)[C@H](CCCCN)NC(=O)[C@H](CCCCN)NC(=O)[C@H](CCCCN)NC(=O)[C@H](CCCCN)NC(=O)[C@H](CCCCN)NC(=O)[C@@H](N)CCCCN)[C@@H](C)O)CSSC[C@@H](C(=O)N[C@@H](CCCCN)C(=O)N2CCC[C@H]2C(=O)N[C@@H](CCC(N)=O)C(=O)NCC(=O)NCC(=O)N[C@@H](CCCCN)C(=O)N[C@@H](CCCCN)C(=O)N[C@@H](CCCCN)C(=O)N[C@@H](CCCCN)C(=O)N[C@@H](CCCCN)C(=O)N[C@@H](CCCCN)C(=O)O)NC(=O)[C@H](C(C)C)NC(=O)[C@H](Cc2c[nH]c3ccccc23)NC(=O)[C@H]([C@@H](C)O)NC1=O [(Lys)6-EMP-1-(Lys)6-OH, H-(Lys)6-Gly-Gly-Thr-Tyr-Ser-Cys-His-Phe-Gly-Pro-Leu-Thr -Trp-Val-Cys-Lys-Pro-Gln-Gly-Gly-(Lys)6-OH] (H-KKKKKKGGTYSCHFGPLTWVCKPQGGKKKKKK-OH; disulfide 12-21) |  |  |  | > 100 h
6 | WAGGDASGE [DSIP, H-Trp-Ala-Gly-Gly-Asp-Ala-Ser-Gly-GIu-OH, reference compound] |  |  |  | < 0.333 h
7 | CC[C@H](C)[C@H](NC(=O)[C@H](Cc1ccccc1)NC(=O)[C@H](CCC(=O)O)NC(=O)[C@H](CCCCN)NC(=O)[C@H](C)NC(=O)[C@H](C)NC(=O)[C@H](CCC(N)=O)NC(=O)CNC(=O)[C@H](CCC(=O)O)NC(=O)[C@H](CC(C)C)NC(=O)[C@H](Cc1ccc(O)cc1)NC(=O)[C@H](CO)NC(=O)[C@H](CO)NC(=O)[C@@H](NC(=O)[C@H](CC(=O)O)NC(=O)[C@H](CO)NC(=O)[C@@H](NC(=O)[C@H](Cc1ccccc1)NC(=O)[C@@H](NC(=O)CNC(=O)[C@H](CCC(=O)O)NC(=O)[C@H](C)NC(=O)[C@@H](N)Cc1c[nH]cn1)[C@@H](C)O)[C@@H](C)O)C(C)C)C(=O)N[C@@H](C)C(=O)N[C@@H](Cc1c[nH]c2ccccc12)C(=O)N[C@@H](CC(C)C)C(=O)N[C@H](C(=O)N[C@@H](CCCCN)C(=O)NCC(=O)N[C@@H](CCCNC(=N)N)C(=O)O)C(C)C [GLP-1(7-36)(Human)-OH, H-His-Ala-Glu-Gly-Thr-Phe-Thr-Ser-Asp-Val-Ser-Ser-Tyr-Leu -Glu-Gly-Gln-Ala-Ala-Lys-Glu-Phe-Ile-Ala-Trp-Leu-Val-Lys-Gly-Arg-OH, reference compound] | 2.47 h | 0.0047 min⁻¹ |  | 0.367 h
8 | H-KKKKKKYGGFL-OH [(Lys)6-Leu-Enkephalin-OH, H-Lys6 Tyr-Gly-Gly-Phe-Leu-OH] |  |  | 0.026 min⁻¹ | 0.45 h
9 | H-YGGFLKEEEKK-OH [Leu-Enkephalin-Lys-(Glu)3-(Lys)2-OH, H-Tyr-Gly-Gly-Phe-Leu-Lys-(Glu)3-(Lys)2-OH] | 14.4 h | 0.0008 min⁻¹ | 0.12 min⁻¹ | 0.095 h
10 | KKKKKKYGGFLKKKKKK [(Lys)6-Leu-Enkephalin-(Lys)6-OH, H-Lys6-Tyr-Gly-Gly-Phe-Leu-Lys6 OH] |  |  |  | > 100 h
11 | CC(C)C[C@@H]1NC(=O)[C@@H]2CCCN2C(=O)CNC(=O)[C@H](Cc2ccccc2)NC(=O)[C@H](Cc2c[nH]cn2)NC(=O)[C@@H](NC(=O)[C@H](CO)NC(=O)[C@H](Cc2ccc(O)cc2)NC(=O)[C@@H](NC(=O)CNC(=O)CNC(=O)[C@H](CCCCN)NC(=O)[C@H](CCCCN)NC(=O)[C@H](CCCCN)NC(=O)[C@H](CCCCN)NC(=O)[C@H](CCCCN)NC(=O)[C@@H](N)CCCCN)[C@@H](C)O)CSSC[C@@H](C(=O)N[C@@H](CCCCN)C(=O)N2CCC[C@H]2C(=O)N[C@@H](CCC(N)=O)C(=O)NCC(=O)NCC(=O)O)NC(=O)[C@H](C(C)C)NC(=O)[C@H](Cc2c[nH]c3ccccc23)NC(=O)[C@H]([C@@H](C)O)NC1=O [(Lys)6-EMP-1-OH, H-(Lys)6-Gly-Gly-Thr-Tyr-Ser-Cys-His-Phe-Gly-Pro-Leu -Thr-Trp-Val-Cys-Lys-Pro-Gln-Gly-Gly-OH] (H-KKKKKKGGTYSCHFGPLTWVCKPQGG-OH; disulfide 12-21) |  |  |  | > 24 h
